Source: US6994954B2, “System for organ and tissue preservation and hypothermic blood substitution” (Organ Recovery Systems, Inc., priority 2000, dated 2006)

Experiments:
[1] = system: bovine corneal endothelial (BCE) cells; test: Cryopreservation of BCE cells with DMSO in vehicle solution, Alamar Blue; type: cell-based; conditions: freezing and thawing
Experimental: (§1) The same system as that described above for cells in microtiter plates was used to evaluate a preferred embodiment of the exemplary High-K Intracellular-base solution as a new carrier solution for cryoprotective additives (CPA). Specifically, a phosphate-free formulation of the new High-K solution was prepared to avoid the known precipitation of divalent cation phosphates in the presence of the cryoprotectant DMSO at low temperatures. Cell survival was compared after freezing and thawing in the presence of a range of concentrations of DMSO prepared in either the new phosphate-free HK-cryoprotectant vehicle solution (HK-CV), or EuroCollins medium. EuroCollins is an organ preservation solution that has also been used in the field of cryobiology as a vehicle solution for cryoprotectants.
(§2) Cells were plated at 2×10^4 cells/well and after overnight incubation regular culture medium was replaced with the experimental CPA mixtures using the following protocol: Plates were cooled to −80° C. at a controlled rate (1° C./min) and stored overnight at −135° C. The plates were thawed using a two-step warming protocol and the CPA was diluted using mannitol as an osmotic buffer. Cell viability was assessed using the Alamar Blue assay of cellular metabolic activity at 37° C. FIGS. 15 and 16 show the comparative viability of two cell types after cryopreservation in the respective media. […]

A10 smooth muscle cells = test: Cryopreservation of A10 cells with DMSO in vehicle solution, Alamar Blue; type: cell-based; conditions: freezing and thawing
Experimental: as §1, §2

**Q.** What does the source list for `C[S+](C)[O-]` [DMSO, Dimethylsulfoxide]?
**A.** DMSO concentration giving optimum survival [1]: 1 to 2 M; DMSO concentration giving optimum survival (A10 smooth muscle cells): 1 to 2 M
